{
  "source": "patent US20160000869A1",
  "about": "“METHODS OF TREATING IPEX SYNDROME USING TOXIN-BASED PHARMACEUTICAL COMPOSITIONS” (KINETA ONE, LLC, priority 2013, published 2016)",
  "key": {"[1]": {"test_system": "IPEX and secondary conditions related to IPEX", "assay": "Administration of effective amounts to subjects with IPEX (additional studies)", "type": "in vivo", "conditions": "diabetes, thyroid dysfunction, enteropathy, eczema and others"}, "[2]": {"test_system": "effector memory T cells (TEM)", "assay": "Kv1.3 expression, cytokine production and proliferation of TEM in activated PBMCs from IPEX subjects, with or without ShK-186 (flow cytometry, RT-QPCR)", "type": "cell-based, human", "experimental": "This example is performed to evaluate the expression of Kv1.3 channels by TEM found in IPEX subjects compared to controls, and to characterize the responsiveness of IPEX subject samples to treatment with therapeutic peptides such as the ShK-based peptide, ShK-186, formulated into a pharmaceutical composition. To evaluate Kv1.3 expression, peripheral blood mononuclear cells from IPEX and healthy controls are isolated. In the first phase of the example, the cells are activated in vitro with anti-CD3 antibodies or mitogens and then subjected to immunostaining and multicolor flow cytometry.\nIn the second phase, matching cell aliquots are analyzed by RT-QPCR for quantitation of Kv1.3 mRNA. In the third phase, matching cell aliquots are used to study the ability of ShK-186 to block the proinflammatory and proliferative potential of TEM from IPEX subjects versus controls. Cytokines (IFN-γ and IL-2, -4, -10, -17, and -21) and perforin are detected by intracellular cytokine staining and flow cytometry in resting or activated cells in the presence or absence of ShK-186. In this example, ten IPEX and ten normal controls are studied.\nPeripheral blood mononuclear cells (PBMCs) are evaluated by multiparameter flow cytometry for cell surface expression of CD4 and CD25 and intracellular FOXP3. FACS sorting of all stimulated and stained samples will also be performed."}},
  "data": [
    {"substance": "(L-PhosphoTyr)-AEEAc-RSCIDTIPKSRCTAFQCKHSMKYRLSFCRKTCGTC-amide [ShK-186]", "values": [
      {"measurement": "clinically relevant improvements in IPEX and secondary conditions related to IPEX", "setting": "[1]", "result": "produces clinically relevant improvements"},
      {"measurement": "proliferation of TEM", "setting": "[2]; PBMCs from IPEX subjects vs controls", "result": "reduces"},
      {"measurement": "expression of Kv1.3 channels by TEM", "setting": "[2]; PBMCs from IPEX subjects vs healthy controls, activated with anti-CD3 antibodies or mitogens", "result": "reduces"},
      {"measurement": "IFN-γ and IL-2, -4, -10, -17, and/or -21 production by TEM", "setting": "[2]; intracellular cytokine staining and flow cytometry, resting or activated cells", "result": "reduces"}
    ]}
  ]
}
